Experimental findings from US6756359B2, “C12 modified erythromycin macrolides and ketolides having antibacterial activity” (Chiron Corporation, priority 2001, dated 2004) are described below.

Structures are written as SMILES. ≈ marks a conversion by molar mass, not a printed value.

Assay in all cases: Antibacterial activity in vitro, MIC by broth microdilution
In one assay the test system is H. influenzae Hain_49247. It is filed as cell-based, Haemophilus influenzae. The settings on record: Table 5, Strain ID M: H. influenzae Hain_49247; unit assumed. The procedure:
(§1) Representative compounds of the present invention were assayed in vitro for antibacterial activity against the bacterial isolates listed in Table 1 as follows:
(§2) The bacterial isolates listed in Table 1 were cultivated from −70° C. frozen stocks by two consecutive overnight passages (P1, P2) at 35° C. on 5% blood agar (Remel, Lenexa, Kans.). Chocolate agar (Remel) is used for Haemophilus influenzae. H. influenzae and Streptococcus pneumoniae are incubated in 5-10% CO2.
(§3) To determine the amount of solvent to be used to give the desired final concentration, the formula “weight obtained in mg/final concentration in mg/mL” will be used. It will give the amount of solvent in mL needed to be added to give the desired concentration. For example, if 2.5 mg/mL is the desired concentration and the weight of compound is 13.7 mg, then the amount of solvent to be added is 3.94 mL (13.7 mg/2.5 mg/mL=3.94 mLs). Methanol is used as the solvent to dissolve the test compounds. Further dilution of stock is done in sterile, deioinzed water. Drug stocks are kept frozen at −70° C., protected from light.
(§4) MICs are determined by the broth microdilution method in accordance with the NCCLS guidelines. In brief, organism suspensions are adjusted to a 0.5 McFarland standard to yield a final inoculum between 3×10^5 and 7×10^5 CFU/mL. Drug dilutions and inocula are made in sterile, cation adjusted Mueller-Hinton Broth (CAMHB) (Remel) for all but S. pneumoniae [CAMHB with 2-5% lysed horse blood (Remel)] and H. influenzae [Haemophilus Test Medium (Remel)]. An inoculum volume of 100 μl is added to wells containing 100 μl of broth with 2-fold serial dilutions of drug. All inoculated microdilution trays are incubated in ambient air at 35° C. for 18-24 hours, except for S. pneumoniae, and H. influenzae (both at 5-10% CO2).
(§5) Following appropriate incubation, the MIC is determined and the MIC is defined as the lowest concentration of the drug that prevented visible growth.

Assay [1] relates to S. pneumoniae Stpn_Mef S 3427. It is filed as cell-based, Streptococcus pneumoniae. The following applies: Table 5, Strain ID L: S. pneumoniae Stpn_Mef S 3427. The protocol: as §1, §2, §3, §4, §5
Assay [2] relates to S. pneumoniae Stpn_Erm S 4297. Type of assay: cell-based, Streptococcus pneumoniae. The settings on record: Table 5, Strain ID J: S. pneumoniae Stpn_Erm S 4297. The protocol:
as §1, §2, §3, §4, §5

In assay [3] the test system is S. pneumoniae Stpn_Mef 5654. Type of assay: cell-based, Streptococcus pneumoniae. The settings on record: Table 5, Strain ID K: S. pneumoniae Stpn_Mef 5654; unit assumed. The procedure: as §1, §2, §3, §4, §5
The subject of the next assay is S. pneumoniae Stpn_49619. Type of assay: cell-based, Streptococcus pneumoniae. The settings on record: Table 5, Strain ID F: S. pneumoniae Stpn_49619. The procedure:
as §1, §2, §3, §4, §5

Assay [4] relates to S. pneumoniae Stpn_297-749 Pen R. Type of assay: cell-based, Streptococcus pneumoniae. The following applies: Table 5, Strain ID G: S. pneumoniae Stpn_297-749. The protocol:
as §1, §2, §3, §4, §5

Assay [5] concerns S. pneumoniae Stpn_280-962 Pen S. It is filed as cell-based, Streptococcus pneumoniae. The following applies: Table 5, Strain ID H: S. pneumoniae Stpn_280-962. The procedure:
as §1, §2, §3, §4, §5

For assay [6], the system named is S. pneumoniae Stpn_Erm 6849. Type of assay: cell-based, Streptococcus pneumoniae. The settings on record: Table 5, Strain ID I: S. pneumoniae Stpn_Erm 6849. The procedure:
as §1, §2, §3, §4, §5

Assay [7] relates to S. epidermidis Step_14990. It is filed as cell-based. The settings on record: Table 5, Strain ID B: S. epidermidis Step_14990; unit assumed. The protocol:
as §1, §2, §3, §4, §5

A further assay has as its system S. aureus Stau_29213. It is filed as cell-based. The settings on record: Table 5, Strain ID A: S. aureus Stau_29213; unit assumed. The procedure:
as §1, §2, §3, §4, §5

The next assay relates to E. faecalis Enfa_29212. Type of assay: cell-based. The following applies: Table 5, Strain ID D: E. faecalis Enfa_29212; unit assumed. The procedure: as §1, §2, §3, §4, §5
In a further assay the test system is S. pyogenes Stpy_8668. Type of assay: cell-based. The settings on record: Table 5, Strain ID E: S. pyogenes Stpy_8668. The protocol: as §1, §2, §3, §4, §5
In assay [8] the test system is S. epidermidis Step_f50654 Pen S. It is filed as cell-based. The settings on record: Table 5, Strain ID C: S. epidermidis Step_f50654; unit assumed. The protocol:
as §1, §2, §3, §4, §5

Regarding `CC[C@H]1OC(=O)[C@@](C)(F)C(=O)[C@H](C)[C@@H](OC2O[C@H](C)C[C@H](N(C)C)[C@H]2O)[C@@](C)(OC)C[C@@H](C)C(=O)[C@H](C)[C@H]2N(CCCCc3ccnc4ccccc34)C(=O)O[C@]12CC` (stereo partly drawn) [Example 17, (3aS,4R,7S,9R,10R,11S,13R,15R,15aR)-3a,4-diethyl-7-fluoro-11-methoxy-7,9,11,13,15-pentamethyl-2,6,8,14-tetraoxo-1-(4-quinolin-4-ylbutyl)tetradecahydro-2H-oxacyclotetradecino[4,3-d][1,3]oxazol-10-yl 3,4,6-trideoxy-3-(dimethylamino)-D-xylo-hexopyranoside], the MIC was 3.13 µg/mL (≈ 3.78 µM) in the assay with H. influenzae Hain_49247; 0.1 µg/mL (≈ 0.121 µM) in assay [1] (unit assumed); 0.2 µg/mL (≈ 0.242 µM) in [2] (unit assumed); 0.4 µg/mL (≈ 0.483 µM) in [3]; “≦0.05” against S. pneumoniae Stpn_49619; “≦0.05” in assay [4]. In addition, the MIC result was “≦0.05” in assay [5]; 0.78 µg/mL (≈ 0.942 µM) in assay [6] (unit assumed); 0.4 µg/mL (≈ 0.483 µM) in assay [7]; 0.4 µg/mL (≈ 0.483 µM) in the assay on S. aureus Stau_29213; 0.2 µg/mL (≈ 0.242 µM) in the assay on E. faecalis Enfa_29212; 0.1 µg/mL (≈ 0.121 µM) against S. pyogenes Stpy_8668 (unit assumed). This molecule also yielded an MIC in [8] of 0.4 µg/mL (≈ 0.483 µM).

With `CC[C@H]1OC(=O)[C@H](C)C(=O)[C@H](C)[C@@H](OC2O[C@H](C)C[C@H](N(C)C)[C@H]2O)[C@@](C)(OC)C[C@@H](C)C(=O)[C@H](C)[C@H]2N(CCCCc3ccc4ccccc4n3)C(=O)O[C@]12CC` (stereo partly drawn) [Example 18, (3aS,4R,7R,9R,10R,11S,13R,15R,15aR)-3a,4-diethyl-11-methoxy-7,9,11,13,15-pentamethyl-2,6,8,14-tetraoxo-1-(4-quinolin-2-ylbutyl)tetradecahydro-2H-oxacyclotetradecino[4,3-d][1,3]oxazol-10-yl 3,4,6-trideoxy-3-(dimethylamino)-D-xylo-hexopyranoside], the MIC is 3.13 µg/mL (≈ 3.86 µM) against H. influenzae Hain_49247; “≦0.05” in [1]; 0.2 µg/mL (≈ 0.247 µM) in assay [2] (unit assumed); 0.4 µg/mL (≈ 0.494 µM) in [3]; “≦0.05” against S. pneumoniae Stpn_49619; “≦0.05” in assay [4]. Also, the MIC result in assay [5] was “≦0.05”; in assay [6] (unit assumed), 3.13 µg/mL (≈ 3.86 µM); in assay [7], 0.4 µg/mL (≈ 0.494 µM); with S. aureus Stau_29213, 0.78 µg/mL (≈ 0.963 µM); against E. faecalis Enfa_29212 it was 0.1 µg/mL (≈ 0.123 µM); in the assay with S. pyogenes Stpy_8668 (unit assumed), 0.1 µg/mL (≈ 0.123 µM). Besides, the MIC in assay [8] worked out at 0.78 µg/mL (≈ 0.963 µM).

For `CC[C@H]1OC(=O)[C@@](C)(F)C(=O)[C@H](C)[C@@H](OC2O[C@H](C)C[C@H](N(C)C)[C@H]2O)[C@@](C)(OC)C[C@@H](C)C(=O)[C@H](C)[C@H]2N(CCCCc3ccc4ccccc4n3)C(=O)O[C@]12CC` (stereo partly drawn) [Example 19, (3aS,4R,7S,9R,10R,11S,13R,15R,15aR)-3a,4-diethyl-7-fluoro-11-methoxy-7,9,11,13,15-pentamethyl-2,6,8,14-tetraoxo-1-(4-quinolin-2-ylbutyl)tetradecahydro-2H-oxacyclotetradecino[4,3-d][1,3]oxazol-10-yl 3,4,6-trideoxy-3-(dimethylamino)-D-xylo-hexopyranoside], the MIC was 6.25 µg/mL (≈ 7.55 µM) in the assay on H. influenzae Hain_49247; 0.1 µg/mL (≈ 0.121 µM) in [1] (unit assumed); 0.2 µg/mL (≈ 0.242 µM) in [2] (unit assumed); 0.4 µg/mL (≈ 0.483 µM) in assay [3]; “≦0.05” in the assay on S. pneumoniae Stpn_49619; “≦0.05” in assay [4]. Also, the MIC entry was “≦0.05” in [5]; 0.78 µg/mL (≈ 0.942 µM) in assay [6] (unit assumed); 0.4 µg/mL (≈ 0.483 µM) in assay [7]; 0.4 µg/mL (≈ 0.483 µM) in the assay on S. aureus Stau_29213; 0.4 µg/mL (≈ 0.483 µM) with E. faecalis Enfa_29212; 0.1 µg/mL (≈ 0.121 µM) in the assay with S. pyogenes Stpy_8668 (unit assumed). In [8], this molecule gave an MIC of 0.4 µg/mL (≈ 0.483 µM).

`CC[C@H]1OC(=O)[C@H](C)C(=O)[C@H](C)[C@@H](OC2O[C@H](C)C[C@H](N(C)C)[C@H]2O)[C@@](C)(OC)C[C@@H](C)C(=O)[C@H](C)[C@H]2N(CCCCn3cc(-c4cccnc4)nc3C)C(=O)O[C@]12CC` (stereo partly drawn) [Example 20, (3aS,4R,7R,9R,10R,11S,13R,15R,15aR)-3a,4-diethyl-11-methoxy-7,9,11,13,15-pentamethyl-1-[4-(2-methyl-4-pyridin-3-yl-1H-imidazol-1-yl)butyl]-2,6,8,14-tetraoxotetradecahydro-2H-oxacyclotetradecino[4,3-d][1,3]oxazol-10-yl 3,4,6-trideoxy-3-(dimethylamino)-D-xylo-hexopyranoside]: the MIC in the assay on H. influenzae Hain_49247 is 6.25 µg/mL (≈ 7.44 µM); in [1], “≦0.05”; in assay [2], “≦0.05”; in assay [3] it was 0.4 µg/mL (≈ 0.476 µM); in the assay on S. pneumoniae Stpn_49619 it was “≦0.05”; in [4], “≦0.05”. In addition, the MIC result was “≦0.05” in assay [5]; “≦0.5” in [6]; 0.1 µg/mL (≈ 0.119 µM) in assay [7]; 0.2 µg/mL (≈ 0.238 µM) in the assay with S. aureus Stau_29213; 0.1 µg/mL (≈ 0.119 µM) with E. faecalis Enfa_29212; “≦0.05” against S. pyogenes Stpy_8668. Also, the MIC in assay [8] came to 0.2 µg/mL (≈ 0.238 µM).

For `CC[C@H]1OC(=O)[C@H](C)C(=O)[C@H](C)[C@@H](OC2O[C@H](C)C[C@H](N(C)C)[C@H]2O)[C@@](C)(OC)C[C@@H](C)C(=O)[C@H](C)[C@H]2N(CCCCn3cnc(-c4cccnc4)c3C)C(=O)O[C@]12CC` (stereo partly drawn) [Example 21, (3aS,4R,7R,9R,10R,11S,13R,15R,15aR)-3a,4-diethyl-11-methoxy-7,9,11,13,15-pentamethyl-1-[4-(5-methyl-4-pyridin-3-yl-1H-imidazol-1-yl)butyl]-2,6,8,14-tetraoxotetradecahydro-2H-oxacyclotetradecino[4,3-d][1,3]oxazol-10-yl 3,4,6-trideoxy-3-(dimethylamino)-D-xylo-hexopyranoside], the MIC against H. influenzae Hain_49247 is 12.5 µg/mL (≈ 14.9 µM); in assay [1] (unit assumed) it was 0.1 µg/mL (≈ 0.119 µM); in assay [2] (unit assumed), 0.1 µg/mL (≈ 0.119 µM); in assay [3], 0.78 µg/mL (≈ 0.928 µM); against S. pneumoniae Stpn_49619, “≦0.05”; in assay [4] it was “≦0.05”. Further, the MIC entry in [5] is “≦0.05”; in assay [6] (unit assumed) it was 0.2 µg/mL (≈ 0.238 µM); in assay [7], 0.4 µg/mL (≈ 0.476 µM); in the assay on S. aureus Stau_29213 it was 0.4 µg/mL (≈ 0.476 µM); with E. faecalis Enfa_29212 it was 0.1 µg/mL (≈ 0.119 µM); with S. pyogenes Stpy_8668, “≦0.05”. This molecule showed an MIC in assay [8] of 0.4 µg/mL (≈ 0.476 µM).

Consider `CC[C@H]1OC(=O)[C@H](C)C(=O)[C@H](C)[C@@H](OC2O[C@H](C)C[C@H](N(C)C)[C@H]2O)[C@@](C)(OC)C[C@@H](C)C(=O)[C@H](C)[C@H]2N(CCCCn3cnc4ncccc43)C(=O)O[C@]12CC` (stereo partly drawn) [Example 22, (3aS,4R,7R,9R,10R,11S,13R,15R,15aR)-3a,4-diethyl-1-[4-(1H-imidazo[4,5-b]pyridin-1-yl)butyl]-11-methoxy-7,9,11,13,15-pentamethyl-2,6,8,14-tetraoxotetradecahydro-2H-oxacyclotetradecino[4,3-d][1,3]oxazol-10-yl 3,4,6-trideoxy-3-(dimethylamino)-D-xylo-hexopyranoside], for which the MIC against H. influenzae Hain_49247 is 3.13 µg/mL (≈ 3.91 µM); in [1] (unit assumed) it was 0.2 µg/mL (≈ 0.25 µM); in [2] (unit assumed), 0.1 µg/mL (≈ 0.125 µM); in assay [3], 0.78 µg/mL (≈ 0.975 µM); against S. pneumoniae Stpn_49619, “≦0.05”; in [4], “≦0.05”. Also, the MIC result in assay [5] was “≦0.05”; in assay [6] (unit assumed), 0.2 µg/mL (≈ 0.25 µM); in [7], 0.4 µg/mL (≈ 0.5 µM); in the assay with S. aureus Stau_29213 it was 0.4 µg/mL (≈ 0.5 µM); in the assay on E. faecalis Enfa_29212, 0.2 µg/mL (≈ 0.25 µM); against S. pyogenes Stpy_8668, “≦0.05”. Further, in assay [8], the MIC is 0.4 µg/mL (≈ 0.5 µM).
